Test results taken from patent US20060122214A1, “Agent for prophylaxis and treatment of angiostenosis” (priority 1999, published 2006).

What was measured:
[1] = system: vascular smooth muscle cells (VSMC) derived from WKY rat aortic tunica media; assay: Proliferation ability of VSMC ([3H] thymidine uptake method); assay type: cell-based; settings: for [3H] thymidine uptake: 24 hours of culture, n = 5
Experimental: (1) Effect on Proliferation Ability of Vascular Smooth Muscle Cells (VSMC) Derived from WKY Rat Aortic Tunica Media (Method) VSMC were separated and cultured according to the method of Yamamoto et al. (Yamamoto H, et al., Br. J. Exp. Pathol. 64; 156-165, 1983). The proliferation ability of VSMC was determined according to the method of Berk et al. [[^3H] thymidine uptake method; Berk B C, et al., J. Cell Physiol. 137; 391-401, 1988]. A DMEM medium containing 10% serum was changed every two days and the cells were cultured on a dish. The cells after 5 to 10 passages were subjected to the experiment. VSMC were cultured in a medium containing 1.0% serum for 24 hours and in a serum free medium for 24 hours to synchronize the cell cycle. The VSMC were transferred to a medium containing 10% fetal calf serum or a serum free medium and [^3H] thymidine (2 μCi/ml) was added to each medium to label VSMC. The test drug (Y-27632) (10 μM or 30 μM) waw simultaneously added, and after 24 hours of culture, VSMC were recovered, admixed with a scintillator (ACSII, Amersham) and subjected to the measurement of radioactivity by a liquid scintillation counter (LS6500, Beckman), based on which the [^3H] thymidine uptake was measured.

[2] = system: vascular smooth muscle cells (VSMC) derived from WKY rat aortic tunica media; assay: Migration ability of cultured VSMC (96 well chemotaxis chamber, A595); assay type: cell-based; settings: for A595 (VSMC migrated to the lower surface of the membrane): Y-27632 10 μM, cultured for 18 hours
Experimental: (2) Effect on Migration Ability of Cultured VSMC (Method) A serum free medium or a medium containing 10% serum, which contained the test drug (Y-27632, 10 μM), was placed in a 96 well chemotaxis lower chamber, and a serum free medium containing the test drug was placed in 96 well chemotaxis upper and lower chambers where VSMC were suspended, and then cultured for 18 hours. The VSMC migrated to the lower surface of the membrane were stained with QuickDiff (International Reagents Corporation) and absorbance was measured at A595.

[3] = system: left carotid artery intima of WKY rats; assay: Proliferation of regenerated intima after balloon injury of carotid artery in rat; assay type: in vivo; settings: 30 mg/kg intraperitoneal, consecutively from 3 days before operation, 14 days after the operation, control 1.88±0.24, sham 0.03±0.01
Experimental: Effect on Proliferation of Regenerated Intima after Balloon Injury of Carotid Artery in Rat 2F Fogarty catheter was inserted from the outer left carotid artery of 8-week-old male WKY rats under anesthesia and inflated in the left common carotid artery, whereby intima was detached in the entire length. Physiological saline was consecutively administered to a control group, and the test drug (Y-27632) (30 mg/kg) was consecutively administered to a test group, wherein both groups underwent intraperitoneal administration starting from 3 days before operation. The rats free of the intima detachment treatment were used as a sham group. At 14 days after the operation, left carotid artery was subjected to perfusion fixation and removed thereafter, stained with HE, and a new intima thickness/medial thickness (I/M) ratio was measured.

C[C@@H](N)[C@H]1CC[C@H](C(=O)Nc2ccncc2)CC1 [Compound Y-27632, (+)-trans-4-(1-aminoethyl)-1-(4-pyridylcarbamoyl)cyclohexane 2HCl.1H2O]
[3H] thymidine uptake ([1]; +10% FCS, Y-27632 10 μM): 360153 ± 10425 dpm/dish | [3H] thymidine uptake ([1]; +10% FCS, Y-27632 30 μM): 366089 ± 12882 dpm/dish | [3H] thymidine uptake ([1]; FCS-free medium, Y-27632 10 μM): 150381 ± 6515 dpm/dish | [3H] thymidine uptake ([1]; FCS-free medium, Y-27632 30 μM): 127767 ± 2482 dpm/dish | effect on [3H] thymidine uptake (in words) ([1]; serum stimulation group and control group (serum free)): did not affect | A595 (VSMC migrated to the lower surface of the membrane) ([2]; +10% FCS): 0.036 ± 0.010 arbitrary unit/well | A595 (VSMC migrated to the lower surface of the membrane) ([2]; FCS-Free): 0.007 ± 0.003 arbitrary unit/well | effect on migration ability of VSMC (in words) ([2]; both medium containing 10% serum and serum free medium): suppressed the migration ability | new intima thickness/medial thickness (I/M) ratio [3]: 0.46±0.22
